Data taken from patent US8222417B2, “Compound having 11β-HSD1 inhibitory activity” (Taisho Pharmaceutical Co., Ltd, priority 2007, dated 2012).
Structures can show the parent of a compound that is named as a salt.

Target: T1, 11β-HSD1 (Homo sapiens, UniProt P28845)
T1 construct: human liver microsome (enzyme source, Tissue Transformation Technologies); tissue Tissue Transformation Technologies; host or cells: human liver microsomes
Assay: 11β-HSD1 inhibition test (human liver microsome, HTRF cortisol detection)
Type: biochemical
Settings: human liver microsome as enzyme source; cortisone 100 nM; 20° C., 80 minutes; generated cortisol quantified by HTRF
Procedure: Test Example [11β-HSD1 Inhibition Test]
Test Compounds were Evaluated as Follows.
11β-HSD1 enzyme reaction was performed in a reaction solution of 100 μl total volume using 96-well polypropylene microplates. The reaction solution was prepared in 30 mM Tris-HCl (pH 7.4)/1 mM EDTA buffer to contain NADPH at a final concentration of 100 μM, G6P at a final concentration of 1 mM, human liver microsome (enzyme source, Tissue Transformation Technologies) at a final concentration of 0.8 μg/ml and 10 μl of a test compound dissolved in DMSO. The enzyme reaction was initiated by addition of cortisone at a final concentration of 100 nM. After incubation at 20° C. for 80 minutes, 10 μl of 1 mM 18β glycyrrhetinic acid, which is a non-specific inhibitor, was added to stop the reaction. Next, the amount of generated cortisol was quantified with a detection kit (Sceti Medical Labo K.K., Japan) according to the HTRF (Homogeneous Time-Resolved Fluorescence) method. This system detects fluorescence resonance energy transfer between europium-labeled anti-cortisol antibody and XL665-labeled cortisol. Upon addition of unlabeled cortisol, binding signals will be attenuated due to competitive reaction. Based on this principle, the amount of cortisol generated by the enzyme reaction was evaluated using a standard curve obtained from samples with known concentrations of cortisol included in the kit. The HTRF reaction was performed in 96-well half area microplates as follows: to 30 μl enzyme reaction solution, an anti-cortisol antibody solution (15 μl) and an XL665-labeled cortisol solution (15 μl) included in the kit were added, and the plates were vortexed at room temperature for 1 hour and further allowed to stand at 20° C. for 1 hour. 40 μl of this reaction solution was transferred to 384-well microplates and measured for its fluorescence. 18β Glycyrrhetinic acid was added to wells before initiation of the enzyme reaction and the amount of cortisol generated in these wells was used as a background level. Test compounds were evaluated using serial dilutions at a common ratio of 3 to calculate their IC50 values, assuming that the amount of cortisol generated in wells containing no test compound was set to 100% enzyme activity.

T1 sequence (P28845 whole entry): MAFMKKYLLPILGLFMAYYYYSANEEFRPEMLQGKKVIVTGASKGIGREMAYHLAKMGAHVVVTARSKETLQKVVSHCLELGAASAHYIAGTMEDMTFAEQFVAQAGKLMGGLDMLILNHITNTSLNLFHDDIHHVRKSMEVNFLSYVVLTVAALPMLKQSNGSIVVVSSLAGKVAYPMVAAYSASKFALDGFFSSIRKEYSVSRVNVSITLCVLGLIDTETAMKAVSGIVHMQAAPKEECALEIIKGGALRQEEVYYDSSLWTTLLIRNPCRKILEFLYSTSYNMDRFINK

IC50 [nM]	Structure (SMILES)
1	O=C(N[C@H]1C2CC3CC1C[C@](O)(C3)C2)N1CCCc2c(F)cccc21 [Compound 1, 5-fluoro-N-(E-1-hydroxyadamantan-4-yl)-3,4-dihydroquinoline-1(2H)-carboxamide]
0.9	O=C(N[C@H]1C2CC3CC1C[C@](O)(C3)C2)N1CCCc2cc(F)ccc21 [Compound 2, 6-fluoro-N-(E-1-hydroxyadamantan-4-yl)-3,4-dihydroquinoline-1(2H)-carboxamide]
1	O=C(N[C@H]1C2CC3CC1C[C@](O)(C3)C2)N1CCCc2ccc(F)cc21 [Compound 3, 7-fluoro-N-(E-1-hydroxyadamantan-4-yl)-3,4-dihydroquinoline-1(2H)-carboxamide]
1.1	O=C(N[C@H]1C2CC3CC1C[C@](O)(C3)C2)N1CCCc2cccc(F)c21 [Compound 4, 8-fluoro-N-(E-1-hydroxyadamantan-4-yl)-3,4-dihydroquinoline-1(2H)-carboxamide]
1.2	COc1ccc2c(c1)N(C(=O)N[C@H]1C3CC4CC1C[C@](O)(C4)C3)CCC2 [Compound 5, N-(E-1-hydroxyadamantan-4-yl)-7-methoxy-3,4-dihydroquinoline-1(2H)-carboxamide]
0.6	Cc1ccc2c(c1)N(C(=O)N[C@H]1C3CC4CC1C[C@](O)(C4)C3)CCC2 [Compound 6, N-(E-1-hydroxyadamantan-4-yl)-7-methyl-3,4-dihydroquinoline-1(2H)-carboxamide]
2.8	N#Cc1ccc2c(c1)CCCN2C(=O)N[C@H]1C2CC3CC1C[C@](O)(C3)C2 [Compound 7, 6-cyano-N-(E-1-hydroxyadamantan-4-yl)-3,4-dihydroquinoline-1(2H)-carboxamide]
0.9	CO[C@]12CC3CC(C1)[C@@H](NC(=O)N1CCCc4ccccc41)C(C3)C2 [Compound 8, N-(E-1-methoxyadamantan-4-yl)-3,4-dihydroquinoline-1(2H)-carboxamide]
17.5	O=C(NC1C2CC3CC1CC(C(=O)O)(C3)C2)N1CCCc2ccccc21 (stereo not drawn) [Compound 10b, E-4-[(3,4-dihydroquinolin-1(2H)-ylcarbonyl)amino]adamantane-1-carboxylic acid]
0.8	NC(=O)C12CC3CC(C1)C(NC(=O)N1CCCc4ccccc41)C(C3)C2 (stereo not drawn) [Compound 11b, N-(E-5-carbamoyladamantan-2-yl)-3,4-dihydroquinoline-1(2H)-carboxamide]
1	O=C(N[C@H]1C2CC3CC1C[C@](F)(C3)C2)N1CCCc2ccccc21 [Compound 12, N-(E-1-fluoroadamantan-4-yl)-3,4-dihydroquinoline-1(2H)-carboxamide]
1.2	O=C(N[C@H]1C2CC3CC1C[C@](O)(C3)C2)N1CCCCc2ccccc21 [Compound 13, N-(E-1-hydroxyadamantan-4-yl)-2,3,4,5-tetrahydro-1H-1-benzoazepine-1-carboxamide]
2	CC1(C)CCN(C(=O)N[C@H]2C3CC4CC2C[C@](O)(C4)C3)c2ccccc21 [Compound 14, N-(E-1-hydroxyadamantan-4-yl)-4,4-dimethyl-3,4-dihydroquinoline-1(2H)-carboxamide]
1.5	O=C(N[C@H]1C2CC3CC1C[C@](O)(C3)C2)N1CCOc2ccccc21 [Compound 16, N-(E-1-hydroxyadamantan-4-yl)-2,3-dihydro-4H-1,4-benzoxazine 4-carboxamide]
0.8	Cc1ccc2c(c1)N(C(=O)N[C@H]1C3CC4CC1C[C@](O)(C4)C3)CCO2 [Compound 17, N-(E-1-hydroxyadamantan-4-yl)-6-methyl-2,3-dihydro-4H-1,4-benzoxazine 4-carboxamide]
0.9	O=C(OC1C2CC3CC1CC(O)(C3)C2)N1CCCc2ccccc21 (stereo not drawn) [Compound 18b, E-5-hydroxyadamantan-2-yl 3,4-dihydroquinoline-1(2H)-carboxylate]
3.5	O=C(N[C@H]1C2CC3CC1C[C@](O)(C3)C2)N1CCOc2ccc(F)cc21 [Compound 19, 6-fluoro-N-(E-1-hydroxyadamantan-4-yl)-2,3-dihydro-4H-1,4-benzoxazine 4-carboxamide]
6.7	COC(=O)c1ccc2c(c1)N(C(=O)N[C@H]1C3CC4CC1C[C@](O)(C4)C3)CCO2 [Compound 20, methyl 4-[(E-5-hydroxyadamantan-2-yl)carbamoyl]-3,4-dihydro-2H-1,4-benzoxazine-6-carboxylate]

IC50 [nM]	Structure (SMILES)
1.1	Cc1ccc2c(c1)OCCN2C(=O)N[C@H]1C2CC3CC1C[C@](O)(C3)C2 [Compound 23, N-(E-5-hydroxyadamantan-2-yl)-7-methyl-2,3-dihydro-4H-1,4-benzoxazine-4-carboxamide]
1.1	O=C(N[C@H]1C2CC3CC1C[C@](O)(C3)C2)N1CCOc2cc(F)ccc21 [Compound 24, 7-fluoro-N-(E-5-hydroxyadamantan-2-yl)-2,3-dihydro-4H-1,4-benzoxazine-4-carboxamide]
1.1	Cc1cccc2c1N(C(=O)N[C@H]1C3CC4CC1C[C@](O)(C4)C3)CCO2 [Compound 25, N-(E-5-hydroxyadamantan-2-yl)-5-methyl-2,3-dihydro-4H-1,4-benzoxazine-4-carboxamide]
3.4	O=C(N[C@H]1C2CC3CC1C[C@](O)(C3)C2)N1CCOc2ccc(C(F)(F)F)cc21 [Compound 26, N-(E-5-hydroxyadamantan-2-yl)-6-(trifluoromethyl)-2,3-dihydro-4H-1,4-benzoxazine-4-carboxamide]
0.7	O=C(N[C@H]1C2CC3CC1C[C@](O)(C3)C2)N1CCSc2ccccc21 [Compound 27, N-(E-5-hydroxyadamantan-2-yl)-2,3-dihydro-4H-1,4-benzothiazine-4-carboxamide]
1.4	O=C(N[C@H]1C2CC3CC1C[C@](O)(C3)C2)N1CCNc2ccccc21 [Compound 32, N-(E-5-hydroxyadamantan-2-yl)-3,4-dihydroquinoxaline-1(2H)-carboxamide hydrochloride]
1.4	CN1CCN(C(=O)N[C@H]2C3CC4CC2C[C@](O)(C4)C3)c2ccccc21 [Compound 33, N-(E-5-hydroxyadamantan-2-yl)-4-methyl-3,4-dihydroquinoxaline-1(2H)-carboxamide hydrochloride]
1.1	O=C(NC1C2CC3CC(C2)CC1C3)N1CCOc2ccccc21 (stereo not drawn) [Compound 34, N-adamantan-2-yl-2,3-dihydro-4H-1,4-benzoxazine-4-carboxamide]
0.6	NC(=O)[C@]12CC3CC(C1)[C@@H](NC(=O)N1CCOc4ccccc41)C(C3)C2 [Compound 37b, N-[E-5-carbamoyladamantan-2-yl]-2,3-dihydro-4H-1,4-benzoxazine-4-carboxamide]
0.6	NC(=O)[C@]12CC3CC(C1)[C@@H](NC(=O)N1CCOc4ccc(F)cc41)C(C3)C2 [Compound 38, N-(E-5-carbamoyladamantan-2-yl)-6-fluoro-2,3-dihydro-4H-1,4-benzoxazine-4-carboxamide]
0.6	Cc1ccc2c(c1)N(C(=O)N[C@H]1C3CC4CC1C[C@](C(N)=O)(C4)C3)CCO2 [Compound 39, N-(E-5-carbamoyladamantan-2-yl)-6-methyl-2,3-dihydro-4H-1,4-benzoxazine-4-carboxamide]
1.1	CO[C@]12CC3CC(C1)[C@@H](NC(=O)N1CCOc4ccccc41)C(C3)C2 [Compound 40, N-(E-1-methoxyadamantan-4-yl)-2,3-dihydro-4H-1,4-benzoxazine-4-carboxamide]
34.7	CS(=O)(=O)[C@]12CC3CC(C1)[C@@H](NC(=O)N1CCOc4ccccc41)C(C3)C2 [Compound 41, N-(E-1-methylsulfonyladamantan-4-yl)-2,3-dihydro-4H-1,4-benzoxazine-4-carboxamide]
4.6	O=C(OC1C2CC3CC1CC(O)(C3)C2)N1CCOc2ccccc21 (stereo not drawn) [Compound 42b, E-5-hydroxyadamantan-2-yl 2,3-dihydro-4H-1,4-benzoxazine-4-carboxylate]
3.2	Cc1ccc2c(c1)N(C(=O)OC1C3CC4CC1CC(O)(C4)C3)CCO2 (stereo not drawn) [Compound 43b, E-5-hydroxyadamantan-2-yl 6-methyl-2,3-dihydro-4H-1,4-benzoxazine-4-carboxylate]
9.5	O=C(OC1C2CC3CC1CC(O)(C3)C2)N1CCOc2ccc(F)cc21 (stereo not drawn) [Compound 44b, E-5-hydroxyadamantan-2-yl 6-fluoro-2,3-dihydro-4H-1,4-benzoxazine-4-carboxylate]
0.7	O=C(N[C@H]1C2CC3CC1C[C@](O)(C3)C2)N1CCCc2ccccc21 [Compound A-1, N-[E-1-hydroxyadamantan-4-yl]-3,4-dihydroquinoline-1(2H)-carboxamide]
0.9	O=C(N[C@H]1C2CC3CC1C[C@](O)(C3)C2)N1CCCc2cc(Cl)ccc21 [Compound A-2, 6-chloro-N-[E-1-hydroxyadamantan-4-yl]-3,4-dihydroquinoline-1(2H)-carboxamide]
